Test results as given in ChEMBL document CHEMBL2424655, “Design, synthesis and biological evaluation of peptide derivatives of L-dopa as anti-parkinsonian agents” (2013).
Square brackets hold non-standard residues; d marks the D form. Peptide text beside a SMILES is read from it. * marks the point of attachment. Dopa = N[C@@H](Cc1ccc(O)c(O)c1)C(=O)O; αMeF = C[C@](N)(Cc1ccccc1)C(=O)O; Cha = N[C@@H](CC1CCCCC1)C(=O)O; Ac6c = NC1(C(=O)O)CCCCC1; Ac5c = NC1(C(=O)O)CCCC1; Aib = CC(C)(N)C(=O)O; OcHex = C1CCC(O*)CC1; OBn = c1ccc(CO*)cc1; OiPr = CC(C)O*

How the values were obtained:
Type in all cases: functional
[1] = test system: Rattus norvegicus; assay: Antiparkinsonian activity in 6-hydroxydopamine lesioned Wistar rat assessed as AUC activity by measuring contralateral rotations at 63.4 umol/kg, po measured every 10 mins for 240 mins relative to L-DOPA
[2] = test system: Rattus norvegicus; assay: Antiparkinsonian activity in 6-hydroxydopamine lesioned Wistar rat assessed as peak activity by measuring contralateral rotations at 63.4 umol/kg, po measured every 10 mins for 240 mins relative to L-DOPA
[3] = test system: Rattus norvegicus; assay: Antiparkinsonian activity in 6-hydroxydopamine lesioned Wistar rat assessed as duration of activity at 63.4 umol/kg, po measured every 10 mins for 240 mins relative to L-DOPA
[4] = test system: Rattus norvegicus; assay: Antiparkinsonian activity in 6-hydroxydopamine lesioned Wistar rat assessed as peak activity by measuring contralateral rotations at 63.4 umol/kg, ip measured every 10 mins for 240 mins relative to L-DOPA
[5] = test system: Rattus norvegicus; assay: Antiparkinsonian activity in 6-hydroxydopamine lesioned Wistar rat assessed as AUC activity by measuring contralateral rotations at 63.4 umol/kg, ip measured every 10 mins for 240 mins relative to L-DOPA
[6] = test system: Rattus norvegicus; assay: Antiparkinsonian activity in 6-hydroxydopamine lesioned Wistar rat assessed as duration of activity at 63.4 umol/kg, ip measured every 10 mins for 240 mins relative to L-DOPA

| Structure (SMILES) | Activity [1] [%] | Activity [2] [%] | Activity [3] [%] | Activity [4] [%] | Activity [5] [%] | Activity [6] [%] |
| --- | --- | --- | --- | --- | --- | --- |
| CC(C)CCOC(=O)[C@H](Cc1ccc(O)c(O)c1)NC(=O)C(C)(C)N.Cl | 79 | 59 | 49 |  |  |  |
| COC(=O)[C@H](Cc1ccc(OC(C)=O)c(OC(C)=O)c1)NC(=O)C(C)(C)N.Cl | 55 | 69 | 73 |  |  |  |
| COC(=O)[C@H](Cc1ccc(OC(C)=O)c(OC(C)=O)c1)NC(=O)C1(N)CCCCC1.Cl | 42 | 55 | 42 |  |  |  |
| COC(=O)[C@H](Cc1ccc(OC(C)=O)c(OC(C)=O)c1)NC(=O)C1(N)CCCC1.Cl | 39 | 61 | 44 |  |  |  |
| COC(=O)[C@H](Cc1ccc(OC(C)=O)c(OC(C)=O)c1)NC(=O)[C@@H](N)CC1CCCCC1.Cl |  |  |  | 51 | 32 | 27 |
| CC(=O)Oc1ccc(C[C@H](NC(=O)C(C)(C)N)C(=O)O)cc1OC(C)=O.Cl | 42 | 66 | 45 |  |  |  |
| COC(=O)[C@H](Cc1ccc(O)c(O)c1)NC(=O)C1(N)CCCC1.Cl (H-[Ac5c]-[Dopa]-OMe) | 78 | 105 | 97 |  |  |  |
| COC(=O)[C@H](Cc1ccc(O)c(O)c1)NC(=O)C1(N)CCCCC1.Cl (H-[Ac6c]-[Dopa]-OMe) | 88 | 107 | 84 |  |  |  |
| CC(C)(N)C(=O)N[C@@H](Cc1ccc(O)c(O)c1)C(=O)OCc1ccccc1.Cl (H-[Aib]-[Dopa]-OBn) | 46 | 71 | 38 |  |  |  |
| CC(C)(N)C(=O)N[C@@H](Cc1ccc(O)c(O)c1)C(=O)O.Cl (H-[Aib]-[Dopa]-OH) | 65 | 80 | 57 |  |  |  |
| COC(=O)[C@H](Cc1ccc(O)c(O)c1)NC(=O)C(C)(C)N.Cl (H-[Aib]-[Dopa]-OMe) |  |  |  | 77 | 69 | 63 |
| CC(C)(N)C(=O)N[C@@H](Cc1ccc(O)c(O)c1)C(=O)OC1CCCCC1.Cl (H-[Aib]-[Dopa]-OcHex) | 105 | 82 | 70 |  |  |  |
| CC(C)OC(=O)[C@H](Cc1ccc(O)c(O)c1)NC(=O)C(C)(C)N.Cl (H-[Aib]-[Dopa]-OiPr) | 116 | 149 | 72 |  |  |  |
| COC(=O)[C@H](Cc1ccc(O)c(O)c1)NC(=O)[C@@H](N)CC1CCCCC1.Cl (H-[Cha]-[Dopa]-OMe) | 40 | 53 | 45 |  |  |  |
| C[C@](N)(Cc1ccccc1)C(=O)N[C@@H](Cc1ccc(O)c(O)c1)C(=O)O.Cl (H-[αMeF]-[Dopa]-OH) | 26 | 37 | 40 |  |  |  |
